# Laboratory results: US20070009377A1, “Methods for Reducing Pathogens in Biological Samples” (priority 2005, published 2007)
# Experiments:
# platelets = assay: In vivo radiolabeled platelet recovery after infusion into the autologous donor (clinical study one); set-up: species or system human; details: after 5-day storage
# Description: At the end of the 5-day storage period, a small aliquot of the platelets was radiolabeled with ^111Indium, according to the study site's SOP (in agreement with local and international standards for radiolabeling of human platelets). The labeling procedure was performed after formation of ^111In-tropolonate through mixing of ^111Indium chloride (Amersham) with tropolone. If the pH of the platelet samples to be labeled was>6.5, it was brought down to 6.5 to prevent irreversible aggregation of platelets during pelleting.
# After washing and resuspension in plasma, a radiolabeled aliquot was infused into the autologous donor. The total radioactivity that was given to a subject in this study was less than 8 MBq. Blood samples for radioactivity counting were collected 15 minutes, 1 hour and 2-3 hours after infusion, twice (AM and PM) on day 1 post-infusion and once on days 2-6 post-infusion. After correcting for 2-hour radioelution as described by Holme, et al., (Holme S, Heaton A, Roodt J. Concurrent label method with 111In and 51Cr allows accurate evaluation of platelet viability of stored platelet concentrates. Br J Haematol 1993;84:717-23.) in vivo radiolabeled platelet recovery and survival values were calculated by the COST computer program using the multiple-hit model. […]
# [1] = system: apheresis platelet concentrates; assay: In vitro cell quality tests of stored platelets after riboflavin + UV light treatment (clinical study one); type: cell-based, human
# Description: The platelet concentrate with a volume of 250 mL was transferred into a 3-litre polyolefin bag (Sengewald, Rohrdorf, Germany), followed by addition of 27 mL sterile 500 μM riboflavin so that the final concentration in the product was ca. 50 μM. The platelet products were then exposed to UV light (phosphor 265-370 nm) at either a medium dose level (7.2 J/ml) or high dose level (12.4 J/ml). Total illumination time varied from approximately 5-10 minutes with agitation at a temperature of 25-30° C. After treatment, platelet products were transferred into a citrated polyvinyl chloride ELP™ bag (Gambro BCT, Lakewood, Colo.). The treated and control PCs were stored for an additional 5 days at 20-24° C. under standard blood bank conditions. Control platelet products were prepared in the same manner as the treated counterparts except no riboflavin was added and no UV light treatment was performed.
# Platelet samples were taken for lab tests at day 0, 3 and 5 of platelet storage using aseptic technique and analysis was completed within 2 hours. The in vitro cell quality tests for platelet count, swirl score, pH, pO2, pCO2, lactate and glucose were performed per standard operating procedures (SOPs) of the trial site. Hypotonic shock response (HSR) and P-selectin expression were measured as described by Ruane et al. (Ruane P H, Edrich R, Gampp D et al. Photochemical inactivation of selected viruses and bacteria in platelet concentrates using riboflavin and light. Transfusion 2004;44:877-85.)
# Following Ethical Committee approval and notification of the MCC, the competent authority of South Africa, a total of 18 platelet products were collected with yields ranging from 2.9 to 3.8×10^11 platelets using standard Trima apheresis procedures. Products were treated in a polyolefin container, Sengewald bag, with UV light at either a medium UV dose (7.2 J/ml; N=5) or a high UV dose (12.4 J/ml; N=6) in the presence of 50 μM riboflavin on the day of collection. An additional seven products served as controls which were not treated with UV light. All treated and control PC products were transferred to and stored in ELP™ bags under normal blood bank conditions for 5 days post-apheresis collection. At day 0 (pre-treatment), day 3 and day 5 of storage, the samples from all PC products were measured for pH, pO2, pCO2, lactate and glucose concentrations, P-selectin, HSR and platelet swirl. […] UV treatment also accelerated an increase in P-selectin expression and decreases in HSR and swirl score during platelet storage. It appears that the severity of these changes during platelet storage were in direct proportion to the levels of UV dose applied.
compound,measurement,setting,value
"Cc1cc2nc3c(=O)[nH]c(=O)nc-3n(C[C@H](O)[C@H](O)[C@H](O)CO)c2cc1C [riboflavin, 7,8-dimethyl-10-ribityl isoalloxazine]",average in vivo recovery of infused platelets,platelets; 50 μM riboflavin + high dose of UV light (12.4 J/ml),14%
same,average in vivo recovery of infused platelets,platelets; 50 μM riboflavin + medium dose of UV light (7.2 J/ml),30%
same,pO2,"[1]; 50 μM riboflavin + high UV dose (12.4 J/ml), Day 0 (pre-treatment)",95 +/− 19 mmHg
same,pO2,"[1]; 50 μM riboflavin + high UV dose (12.4 J/ml), Day 3",83 +/− 22 mmHg
same,pO2,"[1]; 50 μM riboflavin + high UV dose (12.4 J/ml), Day 5",88 +/− 30 mmHg
same,pO2,"[1]; 50 μM riboflavin + medium UV dose (7.2 J/ml), Day 0 (pre-treatment)",60 +/− 15 mmHg
same,pO2,"[1]; 50 μM riboflavin + medium UV dose (7.2 J/ml), Day 3",82 +/− 24 mmHg
same,pO2,"[1]; 50 μM riboflavin + medium UV dose (7.2 J/ml), Day 5",68 +/− 17 mmHg
